Source: ChEMBL document CHEMBL1772936, “Synthesis and biological activity of novel N6-substituted and 2,N6-disubstituted adenine ribo- and 3'-C-methyl-ribonucleosides as antitumor agents” (Eur J Med Chem, 2011)

Experiments:
[1] = test system: HeLa; experiment: Antiproliferative activity against human HeLa cells after 72 hrs by MTS assay; type: functional
[2] = test system: HT-29; experiment: Antiproliferative activity against human HT-29 cells after 72 hrs by MTS assay; type: functional; conditions: HT-29, 72 h
[3] = test system: K562; experiment: Antiproliferative activity against human K562 cells after 72 hrs by MTS assay; type: functional; conditions: K562, 72 h
[4] = test system: Caco-2; experiment: Antiproliferative activity against human Caco2 cells after 72 hrs by MTS assay; type: functional; conditions: Caco-2, 72 h
[5] = test system: MCF7; experiment: Antiproliferative activity against human MCF7 cells after 72 hrs by MTS assay; type: functional; conditions: MCF7, 72 h
[6] = target: T1, Ribonucleoside-diphosphate reductase RR1 (Homo sapiens) (UniProt P23921+Q7LG56+P31350); experiment: (§1) Inhibition of human recombinant ribonucleotide reductase p53R2/M1 expressed in Escherichia coli BL21 (DE3) after 30 mins by [3H]CDP reduction method
[7] = target: T2, Ribonucleoside-diphosphate reductase RR1 (Homo sapiens, UniProt P23921+P31350+Q7LG56); experiment: as §1
T2 sequence (P23921 whole entry): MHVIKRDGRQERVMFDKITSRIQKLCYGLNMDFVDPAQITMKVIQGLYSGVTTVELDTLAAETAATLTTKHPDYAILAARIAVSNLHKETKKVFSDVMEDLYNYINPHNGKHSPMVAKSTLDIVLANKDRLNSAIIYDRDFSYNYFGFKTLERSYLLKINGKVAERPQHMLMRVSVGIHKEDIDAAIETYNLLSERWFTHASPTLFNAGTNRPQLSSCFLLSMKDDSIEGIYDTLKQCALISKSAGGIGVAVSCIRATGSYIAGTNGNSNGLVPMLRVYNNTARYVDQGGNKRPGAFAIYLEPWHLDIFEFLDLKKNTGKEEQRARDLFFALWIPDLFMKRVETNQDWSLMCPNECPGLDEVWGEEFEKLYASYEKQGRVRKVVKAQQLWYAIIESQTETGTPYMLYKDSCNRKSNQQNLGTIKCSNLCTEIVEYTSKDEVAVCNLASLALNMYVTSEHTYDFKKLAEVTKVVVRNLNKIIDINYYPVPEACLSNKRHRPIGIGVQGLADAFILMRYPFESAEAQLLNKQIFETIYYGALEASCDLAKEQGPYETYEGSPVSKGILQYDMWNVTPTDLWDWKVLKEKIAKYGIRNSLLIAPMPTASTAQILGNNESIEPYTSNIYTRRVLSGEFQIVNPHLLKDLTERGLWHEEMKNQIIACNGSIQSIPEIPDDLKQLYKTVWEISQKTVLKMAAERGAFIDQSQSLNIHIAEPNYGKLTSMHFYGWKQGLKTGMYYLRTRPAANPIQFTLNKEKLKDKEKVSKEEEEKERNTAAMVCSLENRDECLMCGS
T2 sequence (Q7LG56 whole entry): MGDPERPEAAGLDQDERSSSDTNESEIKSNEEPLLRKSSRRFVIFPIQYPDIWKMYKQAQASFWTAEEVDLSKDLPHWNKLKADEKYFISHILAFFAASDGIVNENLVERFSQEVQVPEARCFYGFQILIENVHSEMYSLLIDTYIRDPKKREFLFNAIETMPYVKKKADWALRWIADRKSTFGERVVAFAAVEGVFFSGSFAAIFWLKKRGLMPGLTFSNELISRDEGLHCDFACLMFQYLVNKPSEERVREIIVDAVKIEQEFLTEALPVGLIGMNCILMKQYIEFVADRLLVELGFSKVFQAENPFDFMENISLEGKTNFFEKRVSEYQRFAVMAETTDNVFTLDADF
T2 sequence (P31350 whole entry): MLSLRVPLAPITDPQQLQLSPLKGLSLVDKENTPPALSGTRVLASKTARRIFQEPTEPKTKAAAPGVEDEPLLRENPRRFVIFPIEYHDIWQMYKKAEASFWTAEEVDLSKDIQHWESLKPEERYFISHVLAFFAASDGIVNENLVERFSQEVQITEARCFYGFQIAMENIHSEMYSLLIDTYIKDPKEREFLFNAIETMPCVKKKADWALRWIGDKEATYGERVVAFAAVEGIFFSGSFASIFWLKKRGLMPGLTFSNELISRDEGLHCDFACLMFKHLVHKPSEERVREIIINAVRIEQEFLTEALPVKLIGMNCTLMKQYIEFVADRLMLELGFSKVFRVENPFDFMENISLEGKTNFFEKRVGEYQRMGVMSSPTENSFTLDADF

[8] = test system: K562; experiment: Antiproliferative activity against doxorubicin-sensitive human K562 cells after 72 hrs by MTS assay; type: functional; conditions: K562, 72 h, read-out: GI100
[9] = target: T1, Ribonucleoside-diphosphate reductase RR1 (Homo sapiens); experiment: (§2) Inhibition of human recombinant ribonucleotide reductase M2/M1 expressed in Escherichia coli BL21 (DE3) after 30 mins by [3H]CDP reduction method
[10] = target: T2, Ribonucleoside-diphosphate reductase RR1; experiment: as §2

`NNc1nc(NN)c2ncn([C@@H]3O[C@H](CO)[C@@H](O)[C@H]3O)c2n1` showed a GI50 [1] of 7.9 µM, a GI50 [2] of 61.4 µM and a GI50 [3] of 30.7 µM. It also gave a GI50 [4] of 18.8 µM and a GI50 [5] of 20.7 µM.

`OC[C@H]1O[C@@H](n2cnc3/c(=N\O)[nH]cnc32)[C@H](O)[C@@H]1O` showed a GI50 [1] of 3.4 µM, a GI50 [2] of 15 µM and a GI50 [3] of 31 µM. For the same compound, the GI50 [4] was greater than 100 µM and the GI50 [5] was greater than 100 µM.

`CON(C)c1ncnc2c1ncn2[C@@H]1O[C@H](CO)[C@@H](O)[C@H]1O` showed a GI50 [1] greater than 100 µM, a GI50 [2] greater than 100 µM and a GI50 [3] greater than 100 µM. For the same compound, the GI50 [4] was 84.1 µM and the GI50 [5] was 46.8 µM.

With `NNc1nc(Cl)nc2c1ncn2[C@@H]1O[C@H](CO)[C@@H](O)[C@H]1O` the GI50 [1] was 86 µM, the GI50 [2] was 86.2 µM and the GI50 [3] was 87.1 µM. It also gave a GI50 [4] greater than 100 µM and a GI50 [5] of 86.2 µM.

Compound `C[C@@]1(O)[C@@H](CO)O[C@@H](n2cnc3c(NN)nc(N)nc32)[C@@H]1O` has a GI50 [1] greater than 100 µM, a GI50 [2] greater than 100 µM and a GI50 [3] of 91 µM. For the same compound, the GI50 [4] was greater than 100 µM and the GI50 [5] was greater than 100 µM.

`C[C@@]1(O)[C@@H](CO)O[C@@H](n2cnc3c(NO)ncnc32)[C@@H]1O` was tested, and the GI50 [1] was greater than 100 µM, the GI50 [2] was greater than 100 µM and the GI50 [3] was greater than 100 µM. For the same compound, the GI50 [4] was greater than 100 µM and the GI50 [5] was greater than 100 µM.

Compound `NNc1ncnc2c1ncn2[C@H]1C[C@H](O)[C@@H](CO)O1` has a GI50 [1] of 16 µM, a GI50 [2] of 18 µM and a GI50 [3] of 12 µM. The GI50 [4] was greater than 100 µM and the GI50 [5] was 7.9 µM.

Work on `C[C@@]1(O)[C@@H](CO)O[C@@H](n2cnc3c(NO)nc(N)nc32)[C@@H]1O` yielded a GI50 [1] greater than 100 µM, a GI50 [2] greater than 100 µM and a GI50 [3] of 94 µM. The GI50 [4] was greater than 100 µM and the GI50 [5] was greater than 100 µM.

Compound `Nc1nc2c(ncn2[C@@H]2O[C@H](CO)[C@@H](O)[C@H]2O)/c(=N\O)[nH]1` has a GI50 [1] greater than 100 µM, a GI50 [2] greater than 100 µM and a GI50 [3] of 99 µM. The GI50 [4] was greater than 100 µM and the GI50 [5] was greater than 100 µM.

With `CON(C)c1ncnc2c1ncn2[C@@H]1O[C@H](CO)[C@@](C)(O)[C@H]1O` the GI50 [1] was greater than 100 µM, the GI50 [2] was greater than 100 µM and the GI50 [3] was greater than 100 µM. It also gave a GI50 [4] greater than 100 µM and a GI50 [5] greater than 100 µM.

Compound `NNc1nc(N)nc2c1ncn2[C@@H]1O[C@H](CO)[C@@H](O)[C@H]1O` has a GI50 [1] greater than 100 µM, a GI50 [2] greater than 100 µM and a GI50 [3] greater than 100 µM. For the same compound, the GI50 [4] was greater than 100 µM and the GI50 [5] was greater than 100 µM.

Compound `CONc1ncnc2c1ncn2[C@@H]1O[C@H](CO)[C@@](C)(O)[C@H]1O` has a GI50 [1] greater than 100 µM, a GI50 [2] greater than 100 µM and a GI50 [3] greater than 100 µM. For the same compound, the GI50 [4] was greater than 100 µM and the GI50 [5] was greater than 100 µM.

`CONc1nc(N)nc2c1ncn2[C@@H]1O[C@H](CO)[C@@](C)(O)[C@H]1O` gave a GI50 [1] greater than 100 µM, a GI50 [2] greater than 100 µM and a GI50 [3] greater than 100 µM. For the same compound, the GI50 [4] was greater than 100 µM and the GI50 [5] was greater than 100 µM.

With `CON(C)c1nc(N)nc2c1ncn2[C@@H]1O[C@H](CO)[C@@](C)(O)[C@H]1O` the GI50 [1] was greater than 100 µM, the GI50 [2] was greater than 100 µM and the GI50 [3] was greater than 100 µM. The GI50 [4] was greater than 100 µM and the GI50 [5] was greater than 100 µM.

With `C[C@@]1(O)[C@@H](CO)O[C@@H](n2cnc3c(N)ncnc32)[C@@H]1O` the GI50 [1] was 23.3 µM, the GI50 [2] was 26.1 µM and the GI50 [3] was 9.4 µM. It also gave a GI50 [4] of 24.3 µM and a GI50 [5] of 22.4 µM.

`C[C@@]1(O)[C@@H](CO)O[C@@H](n2cnc3c(NN)ncnc32)[C@@H]1O` gave a GI50 [1] greater than 100 µM, a GI50 [2] greater than 100 µM and a GI50 [3] greater than 100 µM. The GI50 [4] was greater than 100 µM and the GI50 [5] was greater than 100 µM.

`CO/N=c1/[nH]c(N)nc2c1ncn2[C@@H]1O[C@H](CO)[C@@H](O)[C@H]1O` gave a GI50 [1] greater than 100 µM, a GI50 [2] greater than 100 µM and a GI50 [3] of 49 µM. It also gave a GI50 [4] greater than 100 µM and a GI50 [5] of 58 µM.

`CO/N=c1/[nH]cnc2c1ncn2[C@@H]1O[C@H](CO)[C@@H](O)[C@H]1O` showed a GI50 [1] greater than 100 µM, a GI50 [2] greater than 100 µM and a GI50 [3] greater than 100 µM. It also gave a GI50 [4] greater than 100 µM and a GI50 [5] greater than 100 µM.

For `NNc1ncnc2c1ncn2[C@@H]1O[C@H](CO)[C@@H](O)[C@H]1O`, the GI50 [1] was 0.52 µM, the TGI ([1]; read-out: GI100) was 5 µM and the inhibition [6] was “Dose-dependent effect”. The IC50 [7] was 244 µM, the GI50 [2] was 1.44 µM and the TGI ([2]; read-out: GI100) was 8.2 µM. It also gave a GI50 [3] of 0.61 µM, a GI50 [4] of 1.03 µM and a TGI ([4]; read-out: GI100) of 5 µM. It also gave a TGI [8] of 2000 nM, a GI50 [5] of 0.35 µM and a TGI ([5]; read-out: GI100) of 6.1 µM. For the same compound, the inhibition [9] was “Dose-dependent effect” and the IC50 [10] was 232 µM.
